Reference: ChEMBL document CHEMBL1909046, “DrugMatrix in vitro pharmacology data”

Experiments:
[1] = target: T1, C-X-C chemokine receptor type 2 (Homo sapiens, UniProt P25025); assay type: cell membranes, Membrane; settings: cho-k1; also: in other assays of this panel Not Active means under 50% inhibition at 10 µM
T1 sequence (P25025 whole entry): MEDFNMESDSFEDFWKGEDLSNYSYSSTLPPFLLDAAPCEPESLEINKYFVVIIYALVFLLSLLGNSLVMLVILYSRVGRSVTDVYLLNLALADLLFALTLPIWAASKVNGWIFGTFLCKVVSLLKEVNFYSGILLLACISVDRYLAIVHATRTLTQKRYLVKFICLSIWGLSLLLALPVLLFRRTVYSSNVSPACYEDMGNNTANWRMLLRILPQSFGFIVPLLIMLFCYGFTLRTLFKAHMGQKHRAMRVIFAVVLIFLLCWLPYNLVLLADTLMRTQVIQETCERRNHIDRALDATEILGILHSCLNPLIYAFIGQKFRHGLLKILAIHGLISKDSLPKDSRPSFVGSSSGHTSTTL

[2] = target: T2, Nitric oxide synthase, inducible (Mus musculus, UniProt P29477); design: species or system Escherichia coli;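 also: inhibition of iNOS enzyme activity measured with L-arginine as substrate; in other assays of this panel Not Active means under 50% inhibition at 10 µM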
T2 sequence (P29477 whole entry): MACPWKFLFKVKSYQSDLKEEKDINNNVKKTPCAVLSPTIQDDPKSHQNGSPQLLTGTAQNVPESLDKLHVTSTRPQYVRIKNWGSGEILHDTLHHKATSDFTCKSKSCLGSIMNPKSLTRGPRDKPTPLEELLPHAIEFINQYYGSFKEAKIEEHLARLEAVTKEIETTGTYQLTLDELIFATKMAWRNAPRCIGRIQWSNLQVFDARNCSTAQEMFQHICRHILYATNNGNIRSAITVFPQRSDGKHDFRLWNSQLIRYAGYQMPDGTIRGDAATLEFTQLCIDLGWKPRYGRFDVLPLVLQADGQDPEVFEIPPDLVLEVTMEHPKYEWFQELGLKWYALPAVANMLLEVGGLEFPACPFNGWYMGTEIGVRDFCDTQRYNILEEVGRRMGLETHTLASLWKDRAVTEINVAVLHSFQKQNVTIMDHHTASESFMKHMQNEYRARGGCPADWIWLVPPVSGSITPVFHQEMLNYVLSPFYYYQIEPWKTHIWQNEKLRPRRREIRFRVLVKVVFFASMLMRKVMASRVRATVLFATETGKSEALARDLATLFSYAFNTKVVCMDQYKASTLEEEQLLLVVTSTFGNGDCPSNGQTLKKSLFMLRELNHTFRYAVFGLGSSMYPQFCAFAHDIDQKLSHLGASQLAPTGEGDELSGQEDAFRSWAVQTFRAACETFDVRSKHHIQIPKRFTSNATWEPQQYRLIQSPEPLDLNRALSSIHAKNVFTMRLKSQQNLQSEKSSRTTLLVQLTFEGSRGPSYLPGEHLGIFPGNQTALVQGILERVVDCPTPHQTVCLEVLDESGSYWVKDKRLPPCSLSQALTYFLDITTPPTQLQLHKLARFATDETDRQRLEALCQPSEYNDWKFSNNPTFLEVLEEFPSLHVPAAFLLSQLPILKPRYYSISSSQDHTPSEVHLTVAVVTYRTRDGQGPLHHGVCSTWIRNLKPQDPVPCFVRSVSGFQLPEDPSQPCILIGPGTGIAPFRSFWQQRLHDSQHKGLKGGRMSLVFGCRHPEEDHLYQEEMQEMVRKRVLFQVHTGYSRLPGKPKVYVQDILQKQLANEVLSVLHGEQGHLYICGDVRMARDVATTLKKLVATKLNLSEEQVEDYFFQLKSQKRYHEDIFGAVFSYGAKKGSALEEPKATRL

[3] = target: Platelet-activating factor receptor (Homo sapiens, UniProt P25105); assay type: tissue-based; also: in other assays of this panel Not Active means under 50% inhibition at 10 µM
Chain of Platelet-activating factor receptor (P25105 whole entry): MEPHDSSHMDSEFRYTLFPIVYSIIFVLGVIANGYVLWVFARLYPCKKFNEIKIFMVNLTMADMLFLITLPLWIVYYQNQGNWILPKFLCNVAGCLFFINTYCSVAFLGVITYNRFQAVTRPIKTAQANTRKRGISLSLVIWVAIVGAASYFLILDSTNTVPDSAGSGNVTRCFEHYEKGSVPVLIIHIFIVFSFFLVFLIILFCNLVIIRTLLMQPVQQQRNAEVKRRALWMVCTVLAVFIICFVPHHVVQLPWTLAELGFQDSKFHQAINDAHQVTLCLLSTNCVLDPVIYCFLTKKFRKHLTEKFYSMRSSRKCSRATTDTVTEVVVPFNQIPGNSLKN

Estrogen receptor beta = Estrogen receptor beta (Homo sapiens, UniProt Q92731); settings: sf9; also: in other assays of this panel Not Active means under 50% inhibition at 10 µM
Chain of Estrogen receptor beta (Q92731 whole entry): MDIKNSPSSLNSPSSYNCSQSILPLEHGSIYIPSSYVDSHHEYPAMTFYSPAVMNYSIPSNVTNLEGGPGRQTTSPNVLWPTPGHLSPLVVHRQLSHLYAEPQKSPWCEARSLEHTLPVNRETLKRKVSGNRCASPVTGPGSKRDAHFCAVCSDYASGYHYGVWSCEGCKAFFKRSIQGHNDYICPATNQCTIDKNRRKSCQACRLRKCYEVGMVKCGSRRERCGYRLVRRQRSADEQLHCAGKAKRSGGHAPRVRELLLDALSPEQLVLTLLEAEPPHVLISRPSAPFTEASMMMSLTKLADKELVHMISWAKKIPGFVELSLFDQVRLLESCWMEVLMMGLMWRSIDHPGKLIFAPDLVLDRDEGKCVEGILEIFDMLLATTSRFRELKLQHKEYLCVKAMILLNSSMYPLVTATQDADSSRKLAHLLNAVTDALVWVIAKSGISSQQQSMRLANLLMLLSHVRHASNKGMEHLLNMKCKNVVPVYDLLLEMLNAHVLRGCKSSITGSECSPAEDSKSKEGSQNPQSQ

[4] = DRUGMATRIX: GABAA, Flunitrazepam, Central radioligand binding (ligand: [3H] Flunitrazepam); assay type: cell membranes, Rattus norvegicus, Wistar, Brain, Membrane; settings: Not Active = under 50% inhibition at 10 µM
[5] = target: Epidermal growth factor receptor (Homo sapiens, UniProt P00533); assay: DRUGMATRIX: Protein Tyrosine Kinase, EGF Receptor enzyme inhibition (substrate: Poly(Glu:Tyr)); assay type: cell-based, Insect cells; settings: Not Active = under 50% inhibition at 10 µM
Chain of Epidermal growth factor receptor (P00533 whole entry): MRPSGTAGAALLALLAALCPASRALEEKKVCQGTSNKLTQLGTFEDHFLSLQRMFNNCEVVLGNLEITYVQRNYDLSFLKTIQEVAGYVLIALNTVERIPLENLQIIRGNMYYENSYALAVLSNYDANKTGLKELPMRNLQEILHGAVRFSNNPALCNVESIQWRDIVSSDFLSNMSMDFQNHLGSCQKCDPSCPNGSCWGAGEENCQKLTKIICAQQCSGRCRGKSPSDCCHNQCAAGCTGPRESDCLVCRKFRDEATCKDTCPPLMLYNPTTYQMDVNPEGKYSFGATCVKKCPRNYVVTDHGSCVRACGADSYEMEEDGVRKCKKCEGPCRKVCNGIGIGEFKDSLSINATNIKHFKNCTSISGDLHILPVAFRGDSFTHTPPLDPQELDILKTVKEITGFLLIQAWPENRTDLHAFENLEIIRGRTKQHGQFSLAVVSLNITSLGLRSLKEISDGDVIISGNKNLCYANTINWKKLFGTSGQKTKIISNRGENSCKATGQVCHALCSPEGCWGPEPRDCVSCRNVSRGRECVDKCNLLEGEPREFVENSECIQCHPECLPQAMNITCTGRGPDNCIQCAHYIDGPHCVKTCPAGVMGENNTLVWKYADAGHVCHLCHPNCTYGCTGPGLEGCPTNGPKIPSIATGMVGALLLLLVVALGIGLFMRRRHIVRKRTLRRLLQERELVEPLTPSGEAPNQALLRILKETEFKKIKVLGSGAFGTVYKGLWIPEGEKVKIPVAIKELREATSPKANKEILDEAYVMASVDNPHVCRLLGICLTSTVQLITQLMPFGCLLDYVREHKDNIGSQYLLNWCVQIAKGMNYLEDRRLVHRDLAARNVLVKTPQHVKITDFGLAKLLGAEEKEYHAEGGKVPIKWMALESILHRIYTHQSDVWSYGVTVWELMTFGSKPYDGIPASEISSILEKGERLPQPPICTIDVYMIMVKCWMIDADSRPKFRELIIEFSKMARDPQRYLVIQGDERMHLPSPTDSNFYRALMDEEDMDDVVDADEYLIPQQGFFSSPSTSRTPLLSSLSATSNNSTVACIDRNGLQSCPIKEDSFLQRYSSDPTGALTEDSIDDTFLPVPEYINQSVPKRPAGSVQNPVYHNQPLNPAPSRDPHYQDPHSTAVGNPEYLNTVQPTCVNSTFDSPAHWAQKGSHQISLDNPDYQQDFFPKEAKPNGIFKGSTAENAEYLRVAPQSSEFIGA

[6] = target: Receptor tyrosine-protein kinase erbB-2 (Homo sapiens, UniProt P04626); assay: biochemical; assay type: cell-based, Insect cells
Chain of Receptor tyrosine-protein kinase erbB-2 (P04626 whole entry): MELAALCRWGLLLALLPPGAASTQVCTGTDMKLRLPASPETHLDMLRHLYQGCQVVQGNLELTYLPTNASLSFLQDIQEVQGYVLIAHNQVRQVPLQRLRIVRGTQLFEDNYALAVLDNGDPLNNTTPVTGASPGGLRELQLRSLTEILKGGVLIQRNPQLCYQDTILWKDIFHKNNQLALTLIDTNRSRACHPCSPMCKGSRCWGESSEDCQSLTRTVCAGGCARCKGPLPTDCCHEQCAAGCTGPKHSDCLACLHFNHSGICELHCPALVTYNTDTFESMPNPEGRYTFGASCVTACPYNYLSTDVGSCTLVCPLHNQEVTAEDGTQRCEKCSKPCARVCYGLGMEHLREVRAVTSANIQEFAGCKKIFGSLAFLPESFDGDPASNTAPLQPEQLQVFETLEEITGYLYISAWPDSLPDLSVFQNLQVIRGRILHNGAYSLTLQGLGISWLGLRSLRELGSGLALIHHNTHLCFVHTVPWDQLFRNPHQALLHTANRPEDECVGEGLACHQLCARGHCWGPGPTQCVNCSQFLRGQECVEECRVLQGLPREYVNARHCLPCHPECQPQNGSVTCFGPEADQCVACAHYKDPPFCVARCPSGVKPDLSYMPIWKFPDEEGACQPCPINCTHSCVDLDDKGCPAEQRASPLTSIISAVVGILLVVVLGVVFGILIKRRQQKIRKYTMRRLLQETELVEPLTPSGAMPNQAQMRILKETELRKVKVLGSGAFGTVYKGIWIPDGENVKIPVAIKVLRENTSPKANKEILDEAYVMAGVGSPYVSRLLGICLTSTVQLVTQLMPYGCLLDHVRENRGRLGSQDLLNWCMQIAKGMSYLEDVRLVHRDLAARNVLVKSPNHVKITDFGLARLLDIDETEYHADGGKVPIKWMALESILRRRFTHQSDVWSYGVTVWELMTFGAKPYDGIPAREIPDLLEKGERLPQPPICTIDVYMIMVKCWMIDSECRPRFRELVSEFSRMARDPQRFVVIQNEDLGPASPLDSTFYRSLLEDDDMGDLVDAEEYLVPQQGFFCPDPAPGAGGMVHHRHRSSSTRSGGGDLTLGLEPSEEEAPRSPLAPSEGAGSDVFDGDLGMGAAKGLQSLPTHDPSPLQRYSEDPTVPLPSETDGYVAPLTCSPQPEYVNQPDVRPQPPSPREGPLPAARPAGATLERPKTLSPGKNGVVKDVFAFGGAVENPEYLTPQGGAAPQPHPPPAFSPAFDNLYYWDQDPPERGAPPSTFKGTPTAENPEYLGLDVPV

Insulin receptor = Insulin receptor (Rattus norvegicus, UniProt P15127); assay type: cell membranes, Wistar, Liver, Membrane; also: in other assays of this panel Not Active means under 50% inhibition at 10 µM
Chain of Insulin receptor (P15127 27-759 limits assumed): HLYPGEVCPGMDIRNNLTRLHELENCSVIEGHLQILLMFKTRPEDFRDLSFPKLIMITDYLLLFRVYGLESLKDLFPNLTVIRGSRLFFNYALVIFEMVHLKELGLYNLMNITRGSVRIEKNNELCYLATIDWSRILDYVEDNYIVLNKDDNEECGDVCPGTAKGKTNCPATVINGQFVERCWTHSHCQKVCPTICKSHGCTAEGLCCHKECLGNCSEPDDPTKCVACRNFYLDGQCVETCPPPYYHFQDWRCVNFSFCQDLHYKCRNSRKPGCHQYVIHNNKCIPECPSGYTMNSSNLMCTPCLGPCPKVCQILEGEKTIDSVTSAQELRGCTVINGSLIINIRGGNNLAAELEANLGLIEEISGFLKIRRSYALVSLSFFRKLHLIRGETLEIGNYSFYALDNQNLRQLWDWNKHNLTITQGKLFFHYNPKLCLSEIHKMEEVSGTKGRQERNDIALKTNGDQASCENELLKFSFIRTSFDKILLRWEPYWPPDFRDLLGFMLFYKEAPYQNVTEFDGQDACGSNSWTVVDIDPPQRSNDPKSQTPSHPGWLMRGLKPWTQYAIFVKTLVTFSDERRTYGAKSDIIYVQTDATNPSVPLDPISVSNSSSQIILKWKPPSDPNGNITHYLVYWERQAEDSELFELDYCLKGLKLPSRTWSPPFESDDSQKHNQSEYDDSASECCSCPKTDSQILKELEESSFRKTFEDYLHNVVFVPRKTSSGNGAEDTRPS
Chain of Insulin receptor (P15127 764-1383 limits assumed): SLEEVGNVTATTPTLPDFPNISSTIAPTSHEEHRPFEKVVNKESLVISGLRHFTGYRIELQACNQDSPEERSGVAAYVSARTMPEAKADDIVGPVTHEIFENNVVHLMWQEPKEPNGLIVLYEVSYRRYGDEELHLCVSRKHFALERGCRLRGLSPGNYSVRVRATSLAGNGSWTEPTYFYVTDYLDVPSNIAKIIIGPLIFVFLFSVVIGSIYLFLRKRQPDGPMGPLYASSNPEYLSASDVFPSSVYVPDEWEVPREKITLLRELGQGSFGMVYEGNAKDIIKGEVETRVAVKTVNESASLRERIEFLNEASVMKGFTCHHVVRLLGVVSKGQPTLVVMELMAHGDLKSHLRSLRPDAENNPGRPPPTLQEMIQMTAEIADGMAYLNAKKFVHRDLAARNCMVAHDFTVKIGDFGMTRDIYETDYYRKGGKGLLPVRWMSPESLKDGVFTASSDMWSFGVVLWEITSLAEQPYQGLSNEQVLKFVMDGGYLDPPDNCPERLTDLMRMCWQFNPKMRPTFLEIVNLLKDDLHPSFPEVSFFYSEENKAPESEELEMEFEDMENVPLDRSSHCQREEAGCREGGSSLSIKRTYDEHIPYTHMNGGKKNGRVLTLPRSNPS

| Compound | IC50 [1] | IC50 [2] | IC50 [3] | IC50 (Estrogen receptor beta) | IC50 [4] | Ki [4] | IC50 ([5]; insect cells) | IC50 ([6]; insect cells) | IC50 (Insulin receptor) | IC50 ([6]; read-out: IC50) | IC50 ([5]; read-out: IC50) |
| --- | --- | --- | --- | --- | --- | --- | --- | --- | --- | --- | --- |
| C[C@@H]1C[C@@H]([C@H](O)CC2CC(=O)NC(=O)C2)C(=O)[C@@H](C)C1 [CYCLOHEXIMIDE] | Not Active | Not Active | Not Active | Not Active | Not Active | Not Active | Not Active | Not Active | Not Active | – | – |
| CN(C)/N=N/c1[nH]cnc1C(N)=O [DACARBAZINE] | Not Active | Not Active | Not Active | Not Active | Not Active | Not Active | Not Active | Not Active | Not Active | – | – |
| COc1ccc2c(c1)[C@]13CCCC[C@@H]1[C@H](C2)N(C)CC3 [DEXTROMETHORPHAN] | Not Active | Not Active | Not Active | Not Active | Not Active | Not Active | Not Active | Not Active | Not Active | – | – |
| COP(=O)(OC)OC=C(Cl)Cl [DICHLORVOS] | Not Active | Not Active | Not Active | Not Active | Not Active | Not Active | Not Active | Not Active | Not Active | – | – |
| O=C(O)Cc1ccccc1Nc1c(Cl)cccc1Cl [DICLOFENAC] | Not Active | Not Active | Not Active | Not Active | Not Active | Not Active | Not Active | Not Active | Not Active | – | – |
| C[C@H]1O[C@@H](O[C@H]2[C@@H](O)C[C@H](O[C@H]3[C@@H](O)C[C@H](O[C@H]4CC[C@@]5(C)[C@H](CC[C@@H]6[C@@H]5CC[C@]5(C)[C@@H](C7=CC(=O)OC7)CC[C@]65O)C4)O[C@@H]3C)O[C@@H]2C)C[C@H](O)[C@@H]1O [DIGITOXIN] | Not Active | Not Active | Not Active | Not Active | Not Active | Not Active | Not Active | Not Active | Not Active | – | – |
| CCN1CC(CCN2CCOCC2)C(c2ccccc2)(c2ccccc2)C1=O (stereo not drawn) [DOXAPRAM] | Not Active | Not Active | Not Active | Not Active | Not Active | Not Active | Not Active | Not Active | Not Active | – | – |
| Cn1c(=O)c2c(ncn2CC2OCCO2)n(C)c1=O [DOXOFYLLINE] | Not Active | Not Active | Not Active | Not Active | Not Active | Not Active | Not Active | Not Active | Not Active | – | – |
| COc1cccc2c1C(=O)c1c(O)c3c(c(O)c1C2=O)C[C@@](O)(C(=O)CO)C[C@@H]3O[C@H]1C[C@H](N)[C@H](O)[C@H](C)O1 [DOXORUBICIN] | Not Active | Not Active | Not Active | Not Active | Not Active | Not Active | Not Active | – | Not Active | 2490 nM | – |
| COc1cccc2c1C(=O)c1c(O)c3c(c(O)c1C2=O)C[C@@](O)(C(=O)CO)C[C@@H]3O[C@H]1C[C@H](N)[C@@H](O)[C@H](C)O1 [EPIRUBICIN] | Not Active | Not Active | Not Active | Not Active | Not Active | Not Active | Not Active | Not Active | Not Active | – | – |
| C[C@]12CC[C@@H]3c4ccc(OC(=O)c5ccccc5)cc4CC[C@H]3[C@@H]1CC[C@@H]2O [ESTRADIOL BENZOATE] | Not Active | Not Active | Not Active | Not Active | Not Active | Not Active | Not Active | Not Active | Not Active | – | – |
| CC[C@@H](CO)NCCN[C@@H](CC)CO [ETHAMBUTOL] | Not Active | Not Active | Not Active | Not Active | Not Active | Not Active | Not Active | Not Active | Not Active | – | – |
| CC1(C)O[C@@H]2C[C@H]3[C@@H]4C[C@H](F)C5=CC(=O)C=C[C@]5(C)[C@H]4[C@@H](O)C[C@]3(C)[C@]2(C(=O)CO)O1 [FLUNISOLIDE] | Not Active | Not Active | Not Active | Not Active | Not Active | Not Active | Not Active | Not Active | Not Active | – | – |
| CC1(C)O[C@@H]2C[C@H]3[C@@H]4C[C@H](F)C5=CC(=O)CC[C@]5(C)[C@H]4[C@@H](O)C[C@]3(C)[C@]2(C(=O)CO)O1 [FLURANDRENOLIDE] | Not Active | Not Active | Not Active | Not Active | Not Active | Not Active | Not Active | Not Active | Not Active | – | – |
| CN(C)c1ccc(C(=C2C=CC(=[N+](C)C)C=C2)c2ccc(N(C)C)cc2)cc1.[Cl-] [GENTIAN VIOLET] | Not Active | Not Active | Not Active | Not Active | Not Active | Not Active | – | Not Active | Not Active | – | 473 nM |
| NC(=O)NO [HYDROXYUREA] | Not Active | Not Active | Not Active | Not Active | Not Active | Not Active | Not Active | Not Active | Not Active | – | – |
| CC(C)Cc1ccc(C(C)C(=O)O)cc1 (stereo not drawn) [IBUPROFEN] | Not Active | Not Active | Not Active | Not Active | Not Active | Not Active | Not Active | Not Active | Not Active | – | – |
| CCc1c2c(nc3ccc(OC(=O)N4CCC(N5CCCCC5)CC4)cc13)-c1cc3c(c(=O)n1C2)COC(=O)[C@]3(O)CC [IRINOTECAN] | Not Active | Not Active | Not Active | Not Active | Not Active | Not Active | Not Active | Not Active | Not Active | – | – |
| CC(C(=O)O)c1cccc(C(=O)c2ccccc2)c1 (stereo not drawn) [KETOPROFEN] | Not Active | Not Active | Not Active | Not Active | Not Active | Not Active | Not Active | Not Active | Not Active | – | – |
| Nc1ccn([C@@H]2CS[C@H](CO)O2)c(=O)n1 [LAMIVUDINE] | Not Active | Not Active | Not Active | Not Active | Not Active | Not Active | Not Active | Not Active | Not Active | – | – |
| O=S(=O)([O-])CCS.[Na+] [MESNA] | Not Active | Not Active | Not Active | Not Active | Not Active | Not Active | Not Active | Not Active | Not Active | – | – |
| CC(=O)Nc1cccc(O)c1 [METACETAMOL] | Not Active | Not Active | Not Active | Not Active | Not Active | Not Active | Not Active | Not Active | Not Active | – | – |
